Reference: patent US8124964B2, “Field-effect transistor” (Nippon Kayaku Kabushiki Kaisha, priority 2006, dated 2012)

Assays:
[1] = Solubility Test 2: solubility to chloroform; type: physicochemical; conditions: room temperature, visually checked
Description: (§1) To confirm solubility to solvent, the solubility of a test compound to chloroform was measured. A test compound was added to chloroform little by little at room temperature and stirred. The solubility was determined by visually checking whether it was dissolved or not. When the test compound remained undissolved, the total amount by mass of the test compound added immediately before the moment was calculated and the solubility to chloroform was expressed in terms of % by mass.
After a chloroform suspension solution of the compound represented by the formula (101) above was prepared, insoluble solid substances were filtered off to obtain a filtrate. The solubility of the compound represented by the formula (101) above to the filtrate was 0.02% by mass.

[2] = Solubility Test 1: solubility to toluene; type: physicochemical; conditions: for Solubility (% by mass): to toluene, room temperature, visually checked
Description: as §1, with “solvent, which is one of the important characteristics of a semiconductor manufactured by coating,” for “solvent,”, “toluene” for “chloroform”
The “Compound No.” of Table 2 is the same as defined in Table 1. Furthermore, in Comparative Example 1, the solubility of Compound 16 of Example 15 disclosed in Patent Document 3 to toluene was calculated by the same test method as above. The structural formula of the compound used in Comparative Example 1 is shown in the formula (101) below.

Row | Structure (SMILES) | Solubility (% by mass) [1] [% by mass] | Solubility (% by mass) [2] | Solubility (% by mass) ([2]; listed as formula (101)) | solubility to toluene relative to the aryl derivative of Comparative Example 1 [2]
1 | c1ccc(-c2ccc3c(c2)sc2c4ccc(-c5ccccc5)cc4sc32)cc1 [Comparative Example 1, reference compound] | 0.02 | 0.01 or less % by mass | not more than 0.01 % by mass | 
2 | CCCCCCCCc1ccc2c(c1)sc1c3ccc(CCCCCCCC)cc3sc21 [Compound No. 16, 2,7-Dioctyl[1]benzothieno[3,2-b][1]benzothiophene] | 5.4 | 1.5 % by mass |  | at least 50 fold
3 | CCCCCCCCCCCCc1ccc2c(c1)sc1c3ccc(CCCCCCCCCCCC)cc3sc21 [Compound No. 20, 2,7-Didodecyl[1]benzothieno[3,2-b][1]benzothiophene] | 0.6 | 0.2 % by mass |  | ≥ 20 fold
